Data taken from ChEMBL document CHEMBL1629606, “In vitro and in vivo properties of ellagic acid in malaria treatment” (Antimicrob Agents Chemother, 2009).
pIC50: −log10 of the molar value. Active and inactive are the calls of the source. No cut-off for these calls is given here.

Columns and labels:
Plasmodium falciparum [1] = assay: Antiplasmodial activity against Plasmodium falciparum F32; type: functional, organism-based
Plasmodium falciparum [2] = assay: Antiplasmodial activity against Plasmodium falciparum Dd2; type: functional, organism-based
Plasmodium falciparum [3] = assay: Antiplasmodial activity against Plasmodium falciparum W2; type: functional, organism-based
Plasmodium falciparum [4] = assay: Antiplasmodial activity against Plasmodium falciparum FcM29; type: functional, organism-based
Plasmodium falciparum [5] = assay: Antiplasmodial activity against Plasmodium falciparum FcB1; type: functional, organism-based; conditions: FcB1/Columbia
Vero = assay: Cytotoxicity against Vero cells at 100 uM by MTS assay; type: cell-based; conditions: chlorocebus sabaeus
MRC5 = assay: Cytotoxicity against human MRC5 cells at 100 uM by MTS assay; type: cell-based; conditions: mrc5, 100 µM
KB = assay: Cytotoxicity against human KB cells at 100 uM by MTS assay; type: cell-based
Plasmodium falciparum [6] = assay: Antiplasmodial activity against chloroquine-resistant Plasmodium falciparum W2 in presence of chloroquine; type: functional
[7] = system: Plasmodium vinckei petteri; assay: Antiplasmodial activity against Plasmodium vinckei petteri infected in Swiss mouse assessed as inhibition of parasite growth at 50 mg/kg/day, ip measured on day 4 postinfection; type: functional; conditions: 96 h, route intraperitoneal
[8] = system: Plasmodium vinckei petteri; assay: Antiplasmodial activity against Plasmodium vinckei petteri infected in Swiss mouse assessed as inhibition of parasite growth at 100 mg/kg/day, ip measured on day 5 postinfection; type: functional; conditions: 120 h, route intraperitoneal
[9] = system: Plasmodium vinckei petteri; assay: Antiplasmodial activity against Plasmodium vinckei petteri infected in Swiss mouse assessed as inhibition of parasite growth at 1 mg/kg/day, po measured on day 4 postinfection; type: functional, organism-based
[10] = system: Plasmodium vinckei petteri; assay: Antiplasmodial activity against Plasmodium vinckei petteri infected in Swiss mouse assessed as inhibition of parasite growth at 50 mg/kg/day, po measured on day 4 postinfection; type: functional, organism-based
[11] = system: Plasmodium vinckei petteri; assay: Antiplasmodial activity against Plasmodium vinckei petteri infected in Swiss mouse assessed as inhibition of parasite growth at 100 mg/kg/day, po measured on day 5 postinfection; type: functional, organism-based
[12] = system: Plasmodium vinckei petteri; assay: Antiplasmodial activity against Plasmodium vinckei petteri infected in Swiss mouse assessed as recrudescence of malaria at 50 mg/kg/day, ip measured upto day 60 postinfection; type: functional, organism-based
[13] = system: Plasmodium vinckei petteri; assay: Antiplasmodial activity against Plasmodium vinckei petteri infected in Swiss mouse assessed as recrudescence of malaria at 100 mg/kg/day, ip measured upto day 60 postinfection; type: functional, organism-based
[14] = system: Plasmodium vinckei petteri; assay: Antiplasmodial activity against Plasmodium vinckei petteri infected in Swiss mouse assessed as recrudescence of malaria at 5 mg/kg/day, ip measured upto day 60 postinfection; type: functional, organism-based
[15] = system: Plasmodium vinckei petteri; assay: Antiplasmodial activity against Plasmodium vinckei petteri infected in Swiss mouse assessed as survival at 10 mg/kg, ip treated 4 days before infection measured on day 6 postinfection; type: functional, organism-based; parameters: dose 10 mg/kg
[16] = system: Plasmodium vinckei petteri; assay: Antiplasmodial activity against Plasmodium vinckei petteri infected in Swiss mouse assessed as mortality at 100 mg/kg, po treated 4 days after infection measured on day 7 postinfection; type: functional, organism-based; parameters: dose 100 mg/kg
[17] = system: Plasmodium vinckei petteri; assay: Antiplasmodial activity against Plasmodium vinckei petteri infected in Swiss mouse assessed as survival at 10 mg/kg, ip treated 4 days before infection measured on day 9 postinfection; type: functional, organism-based; parameters: dose 10 mg/kg
Mus musculus [18] = assay: Toxicity in Swiss mouse at 100 mg/kg/day, po for 4 days measured upto day 30; type: organism-based; parameters: route oral; conditions: in vivo, 96 h
Mus musculus [19] = assay: Toxicity in Swiss mouse at 250 mg/kg/day, po for 4 days measured upto day 30; type: organism-based; parameters: route oral; conditions: in vivo, 96 h
Mus musculus [20] = assay: Toxicity in Swiss mouse at 500 mg/kg/day, po for 4 days measured upto day 30; type: organism-based; parameters: route oral; conditions: in vivo, 96 h
Mus musculus [21] = assay: Toxicity in Swiss mouse at 1000 mg/kg/day, po for 4 days measured upto day 30; type: organism-based; parameters: route oral; conditions: in vivo, 96 h
Mus musculus [22] = assay: Toxicity in Swiss mouse at 100 mg/kg/day, ip for 4 days measured upto day 30; type: organism-based; parameters: route intraperitoneal; conditions: in vivo, 96 h
Mus musculus [23] = assay: Toxicity in Swiss mouse at 250 mg/kg/day, ip for 4 days measured upto day 30; type: organism-based; parameters: route intraperitoneal; conditions: in vivo, 96 h
Mus musculus [24] = assay: Toxicity in Swiss mouse at 500 mg/kg/day, ip for 4 days measured upto day 30; type: organism-based; parameters: route intraperitoneal; conditions: in vivo, 96 h
Mus musculus [25] = assay: Toxicity in Swiss mouse at 1000 mg/kg/day, ip for 4 days measured upto day 30; type: organism-based; parameters: route intraperitoneal; conditions: in vivo, 96 h
Plasmodium falciparum [26] = assay: Antiplasmodial activity against Plasmodium falciparum FcM29 assessed as inhibition of parasite growth at 180 nM in presence of 0.87 uM N-acetyl-L-cysteine; type: functional, organism-based
Monocyte = assay: Antioxidant activity in human Monocyte assessed as reduced in PMA-induced ROS production at 3.3 uM by chemiluminescence assay; type: functional, cell-based
Plasmodium falciparum [27] = assay: Antiplasmodial activity against […] Plasmodium falciparum Dd2 assessed as 50% revertant concentration required for mefloquine resistant; type: functional
Plasmodium falciparum [28] = assay: Antiplasmodial activity against chloroquine-resistant Plasmodium falciparum W2 in presence of mefloquine; type: functional
Plasmodium falciparum [29] = assay: Antiplasmodial activity against chloroquine-resistant Plasmodium falciparum W2 in presence of artemisinin; type: functional
Plasmodium falciparum [30] = assay: Antiplasmodial activity against chloroquine-resistant Plasmodium falciparum W2 in presence of artesunate; type: functional
Plasmodium falciparum [31] = assay: Antiplasmodial activity against chloroquine-resistant Plasmodium falciparum W2 in presence of atovaquone; type: functional
Plasmodium falciparum [32] = assay: Antiplasmodial activity against chloroquine-resistant Plasmodium falciparum W2 assessed as 50% revertant concentration required for chloroquine susceptibility; type: functional

C[C@@H]1CC[C@H]2[C@@H](C)C(=O)O[C@@H]3O[C@@]4(C)CC[C@@H]1[C@]32OO4 [ARTEMISININ]
pIC50 (Plasmodium falciparum [1]): 7.90
pIC50 (Plasmodium falciparum [2]): 7.87
pIC50 (Plasmodium falciparum [3]): 7.88
pIC50 (Plasmodium falciparum [4]): 7.91

O=c1oc2c(O)c(O)cc3c(=O)oc4c(O)c(O)cc1c4c23 [ELLAGIC ACID]
pIC50 (Plasmodium falciparum [1]): 6.48
pIC50 (Plasmodium falciparum [2]): 6.98
pIC50 (Plasmodium falciparum [5]): 6.52
pIC50 (Plasmodium falciparum [3]): 6.48
pIC50 (Plasmodium falciparum [4]): 6.74
Activity (Vero): Non-toxic
Activity (MRC5): Non-toxic
Activity (KB): Non-toxic
FIC50 (Plasmodium falciparum [6]): 0.63
inhibition in vivo at 50 mg/kg/day [7]: 100%
inhibition in vivo at 100 mg/kg/day [8]: 100%
Activity [9]: Active
Activity [10]: Active
Activity [11]: Active
Activity [12]: Active
Activity [13]: Active
Activity [14]: Active
Activity [15]: Active
Activity [16]: inactive
Activity [17]: Active
Activity (Mus musculus [18]): Non-toxic
Activity (Mus musculus [19]): Non-toxic
Activity (Mus musculus [20]): Non-toxic
Activity (Mus musculus [21]): Non-toxic
Activity (Mus musculus [22]): Non-toxic
Activity (Mus musculus [23]): Non-toxic
Activity (Mus musculus [24]): Non-toxic
Activity (Mus musculus [25]): Non-toxic
Activity (Plasmodium falciparum [26]): inactive
Activity (Monocyte): Active
Activity (Plasmodium falciparum [27]): 5 ng/mL
FIC50 (Plasmodium falciparum [28]): 0.64
FIC50 (Plasmodium falciparum [29]): 1.26
FIC50 (Plasmodium falciparum [30]): 0.57
FIC50 (Plasmodium falciparum [31]): 0.53

OC1(c2ccc(Cl)c(C(F)(F)F)c2)CCN(CCCC(c2ccc(F)cc2)c2ccc(F)cc2)CC1 [PENFLURIDOL]
Activity (Plasmodium falciparum [27]): 96 ng/mL

COc1ccc(CCN(C)CCCC(C#N)(c2ccc(OC)c(OC)c2)C(C)C)cc1OC (stereo unspecified) [VERAPAMIL]
Activity (Plasmodium falciparum [32]): 0.31 µM
